Source: patent publication US20170210723A1, “MOLECULES HAVING PESTICIDAL UTILITY, AND INTERMEDIATES, COMPOSITIONS, AND PROCESSES, RELATED THERETO” (priority 2016, published 2017)

Key:
Type in all cases: in vivo
[1] = test system: Beet Armyworm (Spodoptera exigua); experiment: Bioassays on BAW, 128-well diet tray assay; conditions: Spodoptera exigua, 168 h; 50 μg/cm^2 on artificial diet, second instar larvae, five to seven days; read-out: BAW % Control (or Mortality) rating
[2] = test system: Yellow Fever Mosquito (Aedes aegypti); experiment: Bioassays on Yellow Fever Mosquito larvae, 96-well plate; conditions: from 4000 ppm DMSO master plate, about 1 day-old larvae, 3 days
How it was run: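 Aedes aegypti larvae about 1 day old, in water with liver powder, exposed in 96-well plates to compounds from a 4000 ppm DMSO master solution diluted in 90:10 water:acetone. Plates covered and held at room temperature for 3 days, then each well scored for mortality; 6 replicate plates.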

[3] = test system: Cabbage Looper (Trichoplusia ni); experiment: Bioassays on CL, 128-well diet tray assay; conditions: Trichoplusia ni, 168 h; 50 μg/cm^2 on artificial diet, second instar larvae, five to seven days; read-out: CL % Control (or Mortality) rating
How it was run: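 Second-instar larvae (1–5 per well) were fed diet surface-treated with 50 μg/cm^2 compound, eight wells each. After five to seven days at 25° C. under a 14:10 photoperiod, mortality was scored per well and the eight wells averaged.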

Row | Compound | mortality at 50 µg/cm2 [1] [%] | YFM % Control (or Mortality) rating [2] | mortality at 50 µg/cm2 [3] [%]
1 | Cc1cc(/C=C/C(c2cc(Cl)cc(Cl)c2)C(F)(F)F)ccc1C(=O)N[C@H](C)CS(=O)(=O)CC(F)(F)F (stereo partly drawn) [F92, 4-((E)-3-(3,5-Dichlorophenyl)-4,4,4-trifluorobut-1-en-1-yl)-2-methyl-N—((R)-1-((2,2,2-trifluoroethyl)sulfonyl)propan-2-yl)benzamide] | 50 to 100 | A (80-100) | 50 to 100
2 | C[C@H](CS(=O)(=O)CC(F)(F)F)NC(=O)c1ccc(/C=C/C(c2cc(Cl)cc(Cl)c2)C(F)(F)F)cc1C(F)(F)F (stereo partly drawn) [F93, 4-((E)-3-(3,5-Dichlorophenyl)-4,4,4-trifluorobut-1-en-1-yl)-N—((R)-1-((2,2,2-trifluoroethyl)sulfonyl)propan-2-yl)-2-(trifluoromethyl)benzamide] | 50 to 100 | A (80-100) | 50 to 100
3 | C[C@H](C[S+]([O-])CC(F)(F)F)NC(=O)c1ccc(/C=C/C(c2cc(Cl)cc(Cl)c2)C(F)(F)F)cc1Cl (stereo partly drawn) [F94, 2-Chloro-4-((E)-3-(3,5-dichlorophenyl)-4,4,4-trifluorobut-1-en-1-yl)-N-((2R)-1-((2,2,2-trifluoroethyl)sulfinyl)propan-2-yl)benzamide] | 50 to 100 | A (80-100) | 50 to 100
4 | C[C@H](CS(=O)(=O)CC(F)(F)F)NC(=O)c1ccc(/C=C/C(c2cc(Cl)cc(Cl)c2)C(F)(F)F)cc1Cl (stereo partly drawn) [F95, 2-Chloro-4-((E)-3-(3,5-dichlorophenyl)-4,4,4-trifluorobut-1-en-1-yl)-N—((R)-1-((2,2,2-trifluoroethyl)sulfonyl)propan-2-yl)benzamide] | 50 to 100 | A (80-100) | 50 to 100
5 | C[C@H](CCSCC(F)(F)F)NC(=O)c1ccc(/C=C/C(c2cc(Cl)c(Cl)c(Cl)c2)C(F)(F)F)cc1C(F)(F)F (stereo partly drawn) [F96, 4-((E)-4,4,4-Trifluoro-3-(3,4,5-trichlorophenyl)but-1-en-1-yl)-N—((R)-4-((2,2,2-trifluoroethyl)thio)butan-2-yl)-2-(trifluoromethyl)benzamide] | 50 to 100 | A (80-100) | 50 to 100
6 | Cc1cc(/C=C/C(c2cc(Cl)c(Cl)c(Cl)c2)C(F)(F)F)cc(F)c1C(=O)N[C@H](C)CSCC(F)(F)F (stereo partly drawn) [F97, 2-Fluoro-6-methyl-4-((E)-4,4,4-trifluoro-3-(3,4,5-trichlorophenyl)but-1-en-1-yl)-N—((R)-1-((2,2,2-trifluoroethyl)thio)propan-2-yl)benzamide] | 50 to 100 | A (80-100) | 50 to 100
7 | Cc1cc(/C=C/C(c2cc(Cl)c(Cl)c(Cl)c2)C(F)(F)F)cc(F)c1C(=O)N[C@H](C)CS(=O)(=O)CC(F)(F)F (stereo partly drawn) [F98, 2-Fluoro-6-methyl-4-((E)-4,4,4-trifluoro-3-(3,4,5-trichlorophenyl)but-1-en-1-yl)-N—((R)-1-((2,2,2-trifluoroethyl)sulfonyl)propan-2-yl)benzamide] | 50 to 100 | A (80-100) | 50 to 100
8 | Cc1cc(/C=C/C(c2cc(Cl)c(Cl)c(Cl)c2)C(F)(F)F)cc(F)c1C(=O)N[C@H](C)C[S+]([O-])CC(F)(F)F (stereo partly drawn) [F99, 2-Fluoro-6-methyl-4-((E)-4,4,4-trifluoro-3-(3,4,5-trichlorophenyl)but-1-en-1-yl)-N-((2R)-1-((2,2,2-trifluoroethyl)sulfinyl)propan-2-yl)benzamide] | 50 to 100 | A (80-100) | 50 to 100
9 | C[C@H](CSCC(F)(F)F)NC(=O)c1ccc(/C=C/C(c2cc(Cl)c(Cl)c(C=O)c2)C(F)(F)F)cc1C(F)(F)F (stereo partly drawn) [F100, 4-((E)-3-(3,4-Dichloro-5-formylphenyl)-4,4,4-trifluorobut-1-en-1-yl)-N—((R)-1-((2,2,2-trifluoroethyl)thio)propan-2-yl)-2-(trifluoromethyl)benzamide] | 50 to 100 | B (More than 0-Less than 80) | 50 to 100
10 | C=CCSC[C@@H](C)NC(=O)c1ccc(/C=C/C(c2cc(Cl)c(Cl)c(Cl)c2)C(F)(F)F)cc1C(F)(F)F (stereo partly drawn) [F101, N—((R)-1-(Allylthio)propan-2-yl)-4-((E)-4,4,4-trifluoro-3-(3,4,5-trichlorophenyl)but-1-en-1-yl)-2-(trifluoromethyl)benzamide] | 50 to 100 | A (80-100) | 50 to 100
11 | C=CCS(=O)(=O)C[C@@H](C)NC(=O)c1ccc(/C=C/C(c2cc(Cl)c(Cl)c(Cl)c2)C(F)(F)F)cc1C(F)(F)F (stereo partly drawn) [F102, N—((R)-1-(Allylsulfonyl)propan-2-yl)-4-((E)-4,4,4-trifluoro-3-(3,4,5-trichlorophenyl)but-1-en-1-yl)-2-(trifluoromethyl)benzamide] | 50 to 100 | A (80-100) | 50 to 100
12 | C=CC[S+]([O-])C[C@@H](C)NC(=O)c1ccc(/C=C/C(c2cc(Cl)c(Cl)c(Cl)c2)C(F)(F)F)cc1C(F)(F)F (stereo partly drawn) [F103, N-((2R)-1-(Allylsulfinyl)propan-2-yl)-4-((E)-4,4,4-trifluoro-3-(3,4,5-trichlorophenyl)but-1-en-1-yl)-2-(trifluoromethyl)benzamide] | 50 to 100 | A (80-100) | 50 to 100
13 | C[C@H](CSCC(F)(F)F)NC(=O)c1ccc(/C=C/C(c2cc(Cl)cc(Cl)c2)C(F)(F)F)cc1Cl (stereo partly drawn) [F104, 2-Chloro-4-((E)-3-(3,5-dichlorophenyl)-4,4,4-trifluorobut-1-en-1-yl)-N—((R)-1-((2,2,2-trifluoroethyl)thio)propan-2-yl)benzamide] | 50 to 100 | A (80-100) | 50 to 100
14 | C[C@H](CC[S+]([O-])CC(F)(F)F)NC(=O)c1ccc(/C=C/C(c2cc(Cl)c(Cl)c(Cl)c2)C(F)(F)F)cc1C(F)(F)F (stereo partly drawn) [F105, 4-((E)-4,4,4-Trifluoro-3-(3,4,5-trichlorophenyl)but-1-en-1-yl)-N-((2R)-4-((2,2,2-trifluoroethyl)sulfinyl)butan-2-yl)-2-(trifluoromethyl)benzamide] | 50 to 100 | A (80-100) | 50 to 100
15 | C[C@H](CCS(=O)(=O)CC(F)(F)F)NC(=O)c1ccc(/C=C/C(c2cc(Cl)c(Cl)c(Cl)c2)C(F)(F)F)cc1C(F)(F)F (stereo partly drawn) [F106, 4-((E)-4,4,4-Trifluoro-3-(3,4,5-trichlorophenyl)but-1-en-1-yl)-N—((R)-4-((2,2,2-trifluoroethyl)sulfonyl)butan-2-yl)-2-(trifluoromethyl)benzamide] | 50 to 100 | A (80-100) | 50 to 100
16 | C[C@H](CSCC(F)(F)F)NC(=O)c1ccc(/C=C/C(c2cc(Cl)c(C#N)c(Cl)c2)C(F)(F)F)cc1C(F)(F)F (stereo partly drawn) [F109, 4-((E)-3-(3,5-Dichloro-4-cyanophenyl)-4,4,4-trifluorobut-1-en-1-yl)-N—((R)-1-((2,2,2-trifluoroethyl)thio)propan-2-yl)-2-(trifluoromethyl)benzamide] | 50 to 100 | A (80-100) | 50 to 100
